Measurements as given in the NIST ThermoML archive (doi:10.1016/j.jct.2005.03.012).

Test: molar heat capacity at constant pressure; xn = mol fraction of the nth substance listed
Details: Liquid, Flow calorimetry

CO [methanol] + O
Details | molar heat capacity at constant pressure [J/K/mol]
472.41 K, 8500 kPa, x1 = 0.4 | 110.52
472.56 K, 5000 kPa, x1 = 0.5 | 119.44
472.78 K, 8500 kPa, x1 = 0.2 | 96.55
472.91 K, 5000 kPa, x1 = 0.3 | 104.69
472.98 K, 5000 kPa, x1 = 0.6 | 127.9
473.11 K, 5000 kPa, x1 = 0.7 | 135.08
473.16 K, 5000 kPa, x1 = 0.8 | 143
473.21 K, 10000 kPa, x1 = 0.8 | 135.8
473.53 K, 10000 kPa, x1 = 0.2 | 96.73
473.95 K, 5000 kPa, x1 = 0.9 | 153.78
474.26 K, 5000 kPa, x1 = 0.2 | 96.84
474.27 K, 5000 kPa, x1 = 0.1 | 89.79
474.92 K, 8500 kPa, x1 = 0.8 | 138.52
497 K, 10000 kPa, x1 = 0.2 | 100.23
497 K, 10000 kPa, x1 = 0.4 | 117.78
497.3 K, 8500 kPa, x1 = 0.3 | 109.45
497.56 K, 8500 kPa, x1 = 0.4 | 118.93
497.97 K, 8500 kPa, x1 = 0.2 | 101.63
498.08 K, 8500 kPa, x1 = 0.5 | 128.47
498.33 K, 8500 kPa, x1 = 0.6 | 139.08
498.46 K, 10000 kPa, x1 = 0.6 | 136.33
499.19 K, 8500 kPa, x1 = 0.1 | 92.18
499.79 K, 8500 kPa, x1 = 0.8 | 166.33
499.83 K, 10000 kPa, x1 = 0.8 | 159.51
499.85 K, 8500 kPa, x1 = 0.7 | 152.5
500.37 K, 8500 kPa, x1 = 0.9 | 185.8
507.38 K, 10000 kPa, x1 = 0.2 | 104.52
507.6 K, 10000 kPa, x1 = 0.4 | 122.36
508.54 K, 10000 kPa, x1 = 0.6 | 145.98
508.68 K, 8500 kPa, x1 = 0.1 | 95.38
508.96 K, 8500 kPa, x1 = 0.2 | 103.83
509.5 K, 10000 kPa, x1 = 0.8 | 178.64
509.58 K, 8500 kPa, x1 = 0.4 | 124.67
510.29 K, 8500 kPa, x1 = 0.5 | 137.86
510.32 K, 8500 kPa, x1 = 0.3 | 114.54
511.09 K, 8500 kPa, x1 = 0.8 | 204.86
511.15 K, 8500 kPa, x1 = 0.7 | 175.97
511.4 K, 8500 kPa, x1 = 0.6 | 155.15
511.68 K, 8500 kPa, x1 = 0.9 | 268
513.62 K, 10000 kPa, x1 = 0.5 | 138.48
514.03 K, 10000 kPa, x1 = 0.4 | 126.54
514.03 K, 10000 kPa, x1 = 0.6 | 154.89
514.08 K, 10000 kPa, x1 = 0.3 | 115.36
514.53 K, 10000 kPa, x1 = 0.1 | 95.01
514.91 K, 10000 kPa, x1 = 0.2 | 105.19
514.98 K, 10000 kPa, x1 = 0.9 | 229.95
515.2 K, 10000 kPa, x1 = 0.8 | 198.37
515.25 K, 10000 kPa, x1 = 0.7 | 174.88
515.73 K, 8500 kPa, x1 = 0.1 | 95.69
516.4 K, 8500 kPa, x1 = 0.9 | 508.52
517.62 K, 8500 kPa, x1 = 0.2 | 106.77
517.97 K, 8500 kPa, x1 = 0.3 | 119.14
518.82 K, 8500 kPa, x1 = 0.8 | 303.27
519.33 K, 8500 kPa, x1 = 0.4 | 133.94
519.69 K, 8500 kPa, x1 = 0.7 | 212.23
520.61 K, 8500 kPa, x1 = 0.5 | 150.12
522.42 K, 8500 kPa, x1 = 0.6 | 186.76
